The target in assay [1] is Delta-type opioid receptor (Homo sapiens, UniProt P41143).
The target in assay [2] is Nociceptin receptor (Homo sapiens, UniProt P41146).
For assay [3], the target named is Kappa-type opioid receptor (Homo sapiens, UniProt P41145).
Another assay addresses Mu-type opioid receptor (Homo sapiens, UniProt P35372).
Assay [4] has as its target Nociceptin receptor (Mus musculus, UniProt P35377).
For assay [5], the target named is Nociceptin receptor (Rattus norvegicus, UniProt P35370).
For assay [6], the target named is Nociceptin receptor (Cavia porcellus).

Several values for one entry are separate records, joined by “and”; a condition that tells them apart may be missing. Equal entries are not always repeated.

Sequence of Nociceptin receptor (Mus musculus, UniProt P35377) (P35377 whole entry): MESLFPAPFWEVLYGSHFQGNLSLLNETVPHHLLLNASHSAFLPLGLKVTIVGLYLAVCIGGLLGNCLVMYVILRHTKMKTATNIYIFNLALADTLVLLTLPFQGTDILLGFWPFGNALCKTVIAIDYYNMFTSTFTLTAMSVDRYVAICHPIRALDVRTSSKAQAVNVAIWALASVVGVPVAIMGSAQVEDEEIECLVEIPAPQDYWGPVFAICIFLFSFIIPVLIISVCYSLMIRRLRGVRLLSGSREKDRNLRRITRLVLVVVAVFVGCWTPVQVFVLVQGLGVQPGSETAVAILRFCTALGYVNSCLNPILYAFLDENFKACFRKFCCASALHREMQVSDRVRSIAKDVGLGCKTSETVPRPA
Sequence of Nociceptin receptor (Homo sapiens, UniProt P41146) (P41146 whole entry): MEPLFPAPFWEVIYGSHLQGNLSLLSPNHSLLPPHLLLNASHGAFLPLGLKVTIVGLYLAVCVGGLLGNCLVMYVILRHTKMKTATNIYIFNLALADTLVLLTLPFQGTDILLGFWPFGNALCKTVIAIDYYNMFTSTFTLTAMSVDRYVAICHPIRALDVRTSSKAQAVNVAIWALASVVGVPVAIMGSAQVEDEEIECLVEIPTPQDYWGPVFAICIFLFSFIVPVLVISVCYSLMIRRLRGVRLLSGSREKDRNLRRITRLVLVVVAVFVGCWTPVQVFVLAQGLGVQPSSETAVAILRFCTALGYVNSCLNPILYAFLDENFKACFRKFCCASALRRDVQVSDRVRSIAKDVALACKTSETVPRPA
Sequence of Kappa-type opioid receptor (P41145 whole entry): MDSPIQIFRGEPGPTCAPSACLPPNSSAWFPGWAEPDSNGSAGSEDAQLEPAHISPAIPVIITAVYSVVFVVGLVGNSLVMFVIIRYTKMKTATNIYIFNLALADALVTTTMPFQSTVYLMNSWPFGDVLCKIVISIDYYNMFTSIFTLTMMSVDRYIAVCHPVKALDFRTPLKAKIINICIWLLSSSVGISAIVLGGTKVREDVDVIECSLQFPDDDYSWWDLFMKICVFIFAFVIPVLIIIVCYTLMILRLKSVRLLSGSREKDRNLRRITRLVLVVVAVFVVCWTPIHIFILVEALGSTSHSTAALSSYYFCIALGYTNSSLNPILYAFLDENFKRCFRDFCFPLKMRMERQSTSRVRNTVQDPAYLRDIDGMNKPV
Sequence of Mu-type opioid receptor (P35372 whole entry): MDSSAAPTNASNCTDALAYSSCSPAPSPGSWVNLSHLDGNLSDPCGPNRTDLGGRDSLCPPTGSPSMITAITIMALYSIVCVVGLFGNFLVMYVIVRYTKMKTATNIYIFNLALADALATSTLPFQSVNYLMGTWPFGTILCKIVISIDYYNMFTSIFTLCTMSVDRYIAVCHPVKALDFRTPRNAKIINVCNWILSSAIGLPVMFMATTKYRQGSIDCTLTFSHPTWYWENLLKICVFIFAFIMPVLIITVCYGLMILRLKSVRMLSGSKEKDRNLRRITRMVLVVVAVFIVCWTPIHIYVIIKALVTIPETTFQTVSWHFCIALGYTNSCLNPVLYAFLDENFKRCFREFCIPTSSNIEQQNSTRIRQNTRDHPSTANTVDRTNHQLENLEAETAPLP
Sequence of Delta-type opioid receptor (P41143 whole entry): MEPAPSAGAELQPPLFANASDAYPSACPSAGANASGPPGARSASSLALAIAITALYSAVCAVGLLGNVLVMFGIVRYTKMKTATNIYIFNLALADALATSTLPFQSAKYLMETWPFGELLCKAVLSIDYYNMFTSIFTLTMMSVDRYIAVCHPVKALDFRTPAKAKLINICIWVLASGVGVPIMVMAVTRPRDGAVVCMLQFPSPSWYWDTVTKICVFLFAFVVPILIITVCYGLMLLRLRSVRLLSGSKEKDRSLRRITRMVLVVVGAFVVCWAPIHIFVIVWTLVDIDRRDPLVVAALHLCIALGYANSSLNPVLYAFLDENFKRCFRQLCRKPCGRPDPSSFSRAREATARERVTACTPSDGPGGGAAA
Sequence of Nociceptin receptor (Rattus norvegicus, UniProt P35370) (P35370 whole entry): as the sequence (P35377 whole entry) above, with F9Y, A335S counted along it

In the case of `C[C@H](NC(=O)CNC(=O)[C@@H](NC(=O)[C@H](Cc1ccc(F)cc1)NC(=O)CNC(=O)CNC(=O)[C@@H](N)Cc1ccccc1)[C@@H](C)O)C(=O)N[C@@H](CCCNC(=N)N)C(=O)N[C@@H](CCCCN)C(=O)N[C@@H](CO)C(=O)N[C@@H](C)C(=O)N[C@@H](CCCNC(=N)N)C(=O)N[C@@H](CCCCN)C(=O)N[C@@H](CCCNC(=N)N)C(=O)N[C@@H](CCCCN)C(=O)N[C@@H](CC(N)=O)C(=O)N[C@@H](CCC(N)=O)C(N)=O` [OFQ/N UFP-102], the Ki in assay [1] was 380 nM; at Nociceptin receptor [2], 0.076 nM and 0.068 nM and 0.021 nM; in assay [3], 4.79 nM; at Mu-type opioid receptor, 70.8 nM; on Nociceptin receptor [4] it was 0.38 nM and 0.65 nM and 0.36 nM; on Nociceptin receptor [5] it was 2.69 nM. For the same compound, the EC50 in assay [6] is 0.58 nM.

Values taken from BindingDB's records for doi:10.1124/jpet.104.077339 (Section of Pharmacology, 2005).
